Biological target: full-length human BTK (Homo sapiens (Human), UniProt Q06187)
Assay: BTK IC50 enzyme assay (microfluidic off-chip mobility shift kinase assay)
Format: biochemical
Settings: incubated for 90 min. at 27 C; read-out: Time Dependent BTK Enzyme Assay IC50
Method: The following describes a microfluidic, off-chip mobility shift kinase assay used to measure inherent potency of compounds against BTK enzyme. Compounds described by embodiments of the present invention were assayed using this protocol and the data from the same is recorded in Table 2 within the column labeled: “Time Dependent BTK Enzyme Assay IC50”.
Stopped reactions were monitored at −2 PSI, −3000 V/−700 V in a LabChip 3000 plate reader from Caliper Life Sciences, a PerkinElmer Company (Hopkinton, Mass.), and the activity was measured by off-chip mobility shift assay measuring the charge/mass difference between substrate and product resulting from peptide phosphorylation. IC50 and efficacy were determined by plotting log [Inhibitor] vs. % Activity in GeneData Screener (Basel, Switzerland). […] I<1 uM and II>1 uM.

Chain of full-length human BTK (Q06187 whole entry): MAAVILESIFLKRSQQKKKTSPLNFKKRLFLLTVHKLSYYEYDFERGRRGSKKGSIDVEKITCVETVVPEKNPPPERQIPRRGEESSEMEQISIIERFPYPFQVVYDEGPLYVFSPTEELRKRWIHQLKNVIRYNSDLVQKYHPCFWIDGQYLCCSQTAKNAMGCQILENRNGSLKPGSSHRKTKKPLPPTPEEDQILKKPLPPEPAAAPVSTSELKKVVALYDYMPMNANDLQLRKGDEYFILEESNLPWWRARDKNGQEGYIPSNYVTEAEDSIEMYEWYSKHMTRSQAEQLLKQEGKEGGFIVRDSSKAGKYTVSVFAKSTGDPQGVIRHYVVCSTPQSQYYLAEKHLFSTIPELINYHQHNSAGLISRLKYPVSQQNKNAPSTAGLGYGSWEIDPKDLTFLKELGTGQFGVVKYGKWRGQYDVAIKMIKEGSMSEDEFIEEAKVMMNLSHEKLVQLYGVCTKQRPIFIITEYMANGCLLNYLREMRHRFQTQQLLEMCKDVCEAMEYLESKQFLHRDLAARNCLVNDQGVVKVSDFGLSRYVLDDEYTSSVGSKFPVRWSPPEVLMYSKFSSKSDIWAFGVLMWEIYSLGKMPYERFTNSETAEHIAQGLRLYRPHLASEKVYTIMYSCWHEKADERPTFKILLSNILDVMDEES

Compound | IC50 [µM]
CN(C)C/C=C/C(=O)Nc1cccc(-c2c(N)ncnc2Oc2ccc(Oc3ccccc3)cc2)c1 [A248, (E)-N-(3-(4-amino-6-(4-phenoxyphenoxy)pyrimidin-5-yl)phenyl)-4-(dimethylamino)but-2-enamide] | < 0.1
Nc1ncnc(NCC2CCN(C(=O)/C=C/CN3CC(F)C3)CC2)c1-c1ccc(Oc2ccccc2)cc1 [A218, (E)-1-(4-(((6-amino-5-(4-phenoxyphenyl)pyrimidin-4-yl)amino)methyl)piperidin-1-yl)-4-(3-fluoroazetidin-1-yl)but-2-en-1-one] | < 1
CN(C)C/C=C/C(=O)N1CCCC(Nc2ncnc(N)c2-c2ccc(Oc3ccccc3)cc2)C1 (stereo not drawn) [A160, (E)-1-(3-((6-amino-5-(4-phenoxyphenyl)pyrimidin-4-yl)amino)piperidin-1-yl)-4-(dimethylamino)but-2-en-1-one] | < 1
C=CC(=O)N1CC2(CC(Nc3ncnc(N)c3-c3cnn(Cc4ccccc4)c3)C2)C1 [A107, 1-(6-((6-amino-5-(1-benzyl-1H-pyrazol-4-yl)pyrimidin-4-yl)amino)-2-azaspiro[3.3]heptan-2-yl)prop-2-en-1-one] | < 1
C=CC(=O)N1CCC(CN(C)c2ncnc(N)c2-c2ccc(Oc3ccccc3)cc2)CC1 [A47, 1-(4-(((6-amino-5-(4-phenoxyphenyl)pyrimidin-4-yl)(methyl)amino)methyl)piperidin-1-yl)prop-2-en-1-one] | < 1
C=CS(=O)(=O)Nc1cccc(Oc2ncnc(N)c2-c2ccc(Oc3ccccc3)cc2)c1 [A58, N-(3-((6-amino-5-(4-phenoxyphenyl)pyrimidin-4-yl)oxy)phenyl)ethenesulfonamide] | < 0.1
C=CC(=O)N1CCC(Nc2ncnc(N)c2-c2ccc(Oc3ccccc3)cc2)CC12CCC2 (stereo not drawn) [A125, 1-(8-((6-amino-5-(4-phenoxyphenyl)pyrimidin-4-yl)amino)-5-azaspiro[3.5]nonan-5-yl)prop-2-en-1-one] | > 1
C#CC(=O)N1CC[C@@H](CNc2ncnc(N)c2-c2cnn(Cc3ccccc3)c2)[C@H](O)C1 [A110, 1-((3S,4S)-4-(((6-amino-5-(1-benzyl-1H-pyrazol-4-yl)pyrimidin-4-yl)amino)methyl)-3-hydroxypiperidin-1-yl)prop-2-yn-1-one] | < 0.1
CC#CC(=O)NCc1cccc(-c2cnccc2Oc2ccc(Oc3ccccc3)cc2)c1 [A304, N-(3-(4-(4-phenoxyphenoxy)pyridin-3-yl)benzyl)but-2-ynamide] | > 1
C=CC(=O)Nc1cccc(Oc2ncnc(N)c2-c2ccc(OCc3ccccc3)cc2)c1 [A249, N-(3-((6-amino-5-(4-(benzyloxy)phenyl)pyrimidin-4-yl)oxy)phenyl)acrylamide] | < 0.1
CN(C)C/C=C/C(=O)N1CCC(CNc2ncnc(N)c2-c2ccc(Oc3ccccc3)cc2)CC1 [A153, (E)-1-(4-(((6-amino-5-(4-phenoxyphenyl)pyrimidin-4-yl)amino)methyl)piperidin-1-yl)-4-(dimethylamino)but-2-en-1-one] | < 1
C=CC(=O)N1C2CCC1CC(CNc1ncnc(N)c1-c1cnn(Cc3ccccc3)c1)C2 (stereo not drawn) [A209, 1-(3-(((6-amino-5-(1-benzyl-1H-pyrazol-4-yl)pyrimidin-4-yl)amino)methyl)-8-azabicyclo[3.2.1]octan-8-yl)prop-2-en-1-one] | < 1
C=CC(=O)N1CCC(CNc2ncnc(N)c2-c2cc(F)c(Oc3ccccc3)cc2F)CC1 [A87, 1-(4-(((6-amino-5-(2,5-difluoro-4-phenoxyphenyl)pyrimidin-4-yl)amino)methyl)piperidin-1-yl)prop-2-en-1-one] | < 1
C=CC(=O)Nc1cccc(Oc2ccncc2-c2ccc(Oc3ccccc3)cc2)c1 [A270, N-(3-((3-(4-phenoxyphenyl)pyridin-4-yl)oxy)phenyl)acrylamide] | < 0.1
CC1=CC(C)=[N+]2C1=Cc1ccc(CCC(=O)N3CCN(C/C=C/C(=O)Nc4cccc(Oc5ncnc(N)c5-c5ccc(Oc6ccccc6)cc5)c4)CC3)n1[B-]2(F)F [A24, (E)-7-(3-(4-(4-((3-((6-amino-5-(4-phenoxyphenyl)pyrimidin-4-yl)oxy)phenyl)amino)-4-oxobut-2-en-1-yl)piperazin-1-yl)-3-oxopropyl)-5,5-difluoro-1,3-dimethyl-5H-dipyrrolo[1,2-c:2′,1′-f][1,3,2]diazaborinin-4-ium-5-uide] | > 1
CC#CC(=O)c1cccc(CNc2ncnc(N)c2-c2ccc(Oc3ccccc3)cc2)c1 [A141, 1-(3-((6-Amino-5-(4-phenoxyphenyl)-pyrimidin-4-ylamino)-methyl)-phenyl)-but-2-yn-1-one] | < 1
C=CC(=O)N1CCC(CNc2ncnc(N)c2-c2ccc(F)cc2)CC1 [A77, 1-(4-(((6-amino-5-(4-fluorophenyl)pyrimidin-4-yl)amino)methyl)piperidin-1-yl)prop-2-en-1-one] | > 1
C=CC(=O)N1CCC2(CCN(c3ncnc(N)c3-c3ccc(Oc4ccccc4)cc3)C2)C1 (stereo not drawn) [A93, 1-(7-(6-amino-5-(4-phenoxyphenyl)pyrimidin-4-yl)-2,7-diazaspiro[4.4]nonan-2-yl)prop-2-en-1-one] | < 1
C=CC(=O)N1CC[C@@H](O)[C@H](Nc2ncnc(N)c2-c2ccc(Oc3ccccc3)cc2)C1 (racemic) [A210, 1-((3R,4R)-3-((6-amino-5-(4-phenoxyphenyl)pyrimidin-4-yl)amino)-4-hydroxypiperidin-1-yl)prop-2-en-1-one] | < 1

Now from value to compound:

IC50 [µM] | Compound
< 0.1 | C=CC(=O)N1CC2(CC(Oc3ncnc(N)c3-c3ccc(Oc4ccc(C#N)cc4)cc3)C2)C1 [A202, 4-(4-(4-((2-acryloyl-2-azaspiro[3.3]heptan-6-yl)oxy)-6-aminopyrimidin-5-yl)phenoxy)benzonitrile]
> 1 | C=CC(=O)N1CCC(CNc2ncnc(N)c2-c2ccc(Oc3ccc(O)cc3)cc2)CC1 [A94, 1-(4-(((6-amino-5-(4-(4-hydroxyphenoxy)phenyl)pyrimidin-4-yl)amino)methyl)piperidin-1-yl)prop-2-en-1-one]
> 1 | C=CC(=O)NC1CCCN(c2ncnc(N)c2-c2ccc(Oc3ccccc3)cc2)C1 (stereo not drawn) [A298, N-(1-(6-amino-5-(4-phenoxyphenyl)pyrimidin-4-yl)piperidin-3-yl)acrylamide]
< 0.1 | C=CC(=O)Nc1cccc(Oc2ncnc(N)c2-c2ccc(Oc3ccccc3)nc2)c1 [A268, N-(3-((6-amino-5-(6-phenoxypyridin-3-yl)pyrimidin-4-yl)oxy)phenyl)acrylamide]
< 0.1 | Nc1ncnc(N[C@@H]2CCN(S(=O)(=O)c3c(F)c(F)c(F)c(F)c3F)C2)c1-c1ccc(Oc2ccccc2)cc1 [A178, (R)-N4-(1-((perfluorophenyl)sulfonyl)pyrrolidin-3-yl)-5-(4-phenoxyphenyl)pyrimidine-4,6-diamine]
> 1 | CN(C)C/C=C/C(=O)N1CC2(CC(Oc3ncnc(N)c3Cl)C2)C1 [A102, (E)-1-(6-((6-amino-5-chloropyrimidin-4-yl)oxy)-2-azaspiro[3.3]heptan-2-yl)-4-(dimethylamino)but-2-en-1-one]
< 0.1 | Nc1ncnc(Oc2cccc(NC(=O)CCl)c2)c1-c1ccc(Oc2ccccc2)cc1 [A342, N-{3-[6-Amino-5-(4-phenoxy-phenyl)-pyrimidin-4-yloxy]-phenyl}-2-chloroacetamide]
< 1 | C=CC(=O)N1CCC(CNc2ncnc(N)c2-c2ccc(Oc3ccncc3)cc2)CC1 [A97, 1-(4-(((6-amino-5-(4-(pyridin-4-yloxy)phenyl)pyrimidin-4-yl)amino)methyl)piperidin-1-yl)prop-2-en-1-one]
< 1 | C=CC(=O)N1CCC(CNc2ncnc(N)c2-c2ccc(Oc3ccc(F)cc3)cc2)CC1 [A80]
< 1 | C=CC(=O)N1CCC(CNc2ncnc(N)c2-c2ccc(OCc3ccccc3)cc2)C1 (stereo not drawn) [A156, 1-(3-(((6-amino-5-(4-(benzyloxy)phenyl)pyrimidin-4-yl)amino)methyl)pyrrolidin-1-yl)prop-2-en-1-one]
> 1 | Nc1ccc(-c2cnccc2Oc2ccc(Oc3ccccc3)cc2)cc1 [A314, 4-(4-(4-phenoxyphenoxy)pyridin-3-yl)aniline]
> 1 | Nc1cccc(-c2c(N)ncnc2Oc2ccc(Oc3ccccc3)cc2)c1 [A317, 5-(3-aminophenyl)-6-(4-phenoxyphenoxy)pyrimidin-4-amine]
> 1 | CCC(=O)Nc1cccc(Oc2ncnc(N)c2-c2ccc(Oc3ccccc3)cc2)c1 [A326, N-(3-((6-amino-5-(4-phenoxyphenyl)pyrimidin-4-yl)oxy)phenyl)propionamide]
< 1 | C=CC(=O)N1CCC(CNc2ncnc(N)c2-c2ccc(Oc3ccc(C(F)(F)F)cc3)cc2)CC1 [A79, 1-(4-(((6-amino-5-(4-(4-(trifluoromethyl)phenoxy)phenyl)pyrimidin-4-yl)amino)methyl)piperidin-1-yl)prop-2-en-1-one]
< 0.1 | C=CC(=O)N1CC[C@@H](Oc2ncnc(N)c2-c2ccc(Oc3ccccc3)cc2)C1 [A19, (R)-1-(3-((6-amino-5-(4-phenoxyphenyl)pyrimidin-4-yl)oxy)pyrrolidin-1-yl)prop-2-en-1-one]
< 0.1 | C=CC(=O)Nc1cccc(Oc2ncnc(N)c2-c2ccc(C(C)(C)O)cc2)c1 [A278, N-(3-((6-amino-5-(4-(2-hydroxypropan-2-yl)phenyl)pyrimidin-4-yl)oxy)phenyl)acrylamide]
